Data on 31 compounds can be found in patent US7250441B2, “Carbazole and cyclopentaindole derivatives to treat infection with Hepatitis C virus” (priority 2004, dated 2007).

In the assay the target is T1, HCV RdRp NS5B d21BK (NS5B from the BK strain, genotype 1b) (Hepatitis C virus genotype 1b, UniProt P26663).
T1 construct: NS5B from the BK strain (genotype 1b) is expressed in E coli as a protein in which the 21 C-terminal amino acids are replaced; made in house; host or cells: E. coli
T1 sequence (P26663 2420-2989): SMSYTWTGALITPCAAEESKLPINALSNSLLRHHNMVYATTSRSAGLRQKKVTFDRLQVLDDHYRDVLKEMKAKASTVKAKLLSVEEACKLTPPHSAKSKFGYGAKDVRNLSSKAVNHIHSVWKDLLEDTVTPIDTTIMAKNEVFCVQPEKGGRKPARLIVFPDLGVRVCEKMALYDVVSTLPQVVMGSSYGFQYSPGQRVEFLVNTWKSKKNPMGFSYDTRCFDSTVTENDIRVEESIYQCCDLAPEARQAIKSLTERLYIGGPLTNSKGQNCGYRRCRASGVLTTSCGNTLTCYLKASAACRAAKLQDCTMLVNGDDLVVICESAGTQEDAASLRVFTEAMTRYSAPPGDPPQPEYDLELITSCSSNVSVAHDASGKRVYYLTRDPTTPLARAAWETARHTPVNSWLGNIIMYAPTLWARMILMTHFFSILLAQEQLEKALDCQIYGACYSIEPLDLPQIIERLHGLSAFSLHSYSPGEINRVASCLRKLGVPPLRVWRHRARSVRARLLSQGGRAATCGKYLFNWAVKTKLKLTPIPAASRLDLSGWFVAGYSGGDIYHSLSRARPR
Put plainly: Hepatitis C polymerase inhibition assay, radioactive nucleotide incorporation with filter capture. It is filed as biochemical. The source says:
The ability of the compounds of formula (I) to inhibit Hepatitis C Polymerase was established by the following experimental procedure.
NS5B from the BK strain (genotype 1b) is expressed in E coli as a protein in which the 21 C-terminal amino acids are replaced with a short linker and a hexahistidine tag ([…]). The purified protein is mixed with radioactive nucleotides and allowed to replicate a heteropolymeric RNA substrate, primed by an endogenous short hairpin, resulting in an approximately 760 nt product. The radioactive product is captured on a filter and quantitated after removal of the unincorporated nucleotides.
(1) Compounds 10 μl at 10 μg/ml in 15% dimethylsulfoxide (DMSO)
When starting from 100 μg/ml compound stock in 1% DMSO, 5 μl 30% DMSO is dispensed per well. Next, 5 μl compound (100 μg/ml) is dispensed per well.
When starting from 50 μg/ml compound stock in 15% DMSO, 10 μl compound is added per well.
20 μl enzyme mix is added into each well of the assay plate. The compound and enzyme are incubated at room temperature for 15 minutes.
(3) Template mix (prepared in advance)
A tube of RNA (5 μg/tube stored in 75% ethanol and 0.3 M sodium acetate) is microcentrifuged for 20 minutes at 4° C. (one tube supplies 1-1.5 plates). Ethanol is removed from the tube by gently inverting the tube. The RNA is vacuum dried and re-suspended in 1 ml of DEPC water in a tightly capped tube. To dissolve RNA, the RNA solution is incubated on ice for ˜60 minutes and gently vortexed. It is spun briefly to ensure all RNA solution at the bottom of the tube before opening cap. The RNA solution is then gently transferred into a 5 ml or larger tube. Another 3 ml of DEPC water is added to obtain a total of 4 ml of volume.
The following volumes of reagents are added:
20 μl template mix per reaction is added (i.e. 20 ng of pOF per reaction or ˜3 nM)
(4) The reaction is incubated at room temperature (22-25° C.) for 2 hours.
(5) The reaction is quenched by adding 50 μl of 170 mM EDTA.
Final concentration of EDTA is 85 mM.
(6) The filters of Millipore multiscreen assay plate is pre-wet by adding 200 μl of 0.5 M sodium phosphate buffer, pH 7.0 into each well. This stands at room temperature for 2-3 minutes.
(7) The multiscreen filter plate is placed onto a Millipore Manifold under vacuum to allow buffer to flow through. After the vacuum is turned off, 80 μl of the reaction product is transferred into each well of the filter plate. This stands for 2-3 minutes prior to turning on the vacuum again to filter the reaction product.
(8) The vacuum is then removed. 200 μl of 0.5 M sodium phosphate buffer is added, pH 7.0, into each well. The vacuum is then turned on.
Step (8) is repeated three more times.
(9) Next the polypropylene bottom is removed, and the filter is spot dried with a paper towel. The filter plate is air-dried on a bench for 1 hour before adding 40 μl Super Mix scintillant. The top of the plate is sealed with a tape and the plate is placed into a Packard carrier or micro-beta carrier.
(10) The plate is counted using a Packard Topcount or micro-beta counter. Count (for example using Program 10) for ^33P in Top count or ^33P program in micro-beta.
The percent inhibition is calculated after background subtraction as a percent reduction of activity relative to the positive control (average value of the plate excluding the negative controls). For the primary screen hits were chosen as showing >75% inhibition.
See, Ferrari et al. 1999. J. Virology 73:1649-1654: “Characterization of soluble Hepatitis C virus RNA-dependent RNA polymerase expressed in E. coli and Takamizawa et al 1991” and J. Virology 65:1105-1113: “Structure and characterization of Hepatitis C virus genome isolated from human carriers,” both reference are hereby incorporated by reference.
In the case of `CCCCC1(C(=O)O)CCc2c1[nH]c1c(C)ccc(Br)c21` (stereo not shown) [Example 4, 8-Bromo-3-butyl-5-methyl-1,2,3,4-tetrahydro-cyclopenta[b]indole-3-carboxylic acid], the IC50 (commonly the concentration that inhibits the measured activity by half) came to 6.7 µM. Take `CCCC1(C(=O)O)CCCc2c1[nH]c1c(C)ccc(C#N)c21` (stereo not shown) [Example 28, 5-Cyano-8-methyl-1-propyl-2,3,4,9-tetrahydro-1H-carbazole-1-carboxylic acid]: the half-inhibitory concentration (IC50) was found to be 15 µM. The result for `CCCC1(C(=O)O)CCc2c1[nH]c1c(F)ccc(Br)c21` (stereo not shown) [Example 12, 8-Bromo-5-fluoro-3-propyl-1,2,3,4-tetrahydro-cyclopenta[b]indole-3-carboxylic acid] reads 2.9 µM; that for `C=CCC1(CC(=O)O)CCCc2c1[nH]c1c(C#N)ccc(C#N)c21` (stereo not shown) [Example 34, (1-Allyl-5,8-dicyano-2,3,4,9-tetrahydro-1H-carbazol-1-yl)-acetic acid], 3.4 µM; that for `C=CCC1(CC(=O)O)CCCc2c1[nH]c1c(F)ccc(C#N)c21` (stereo not shown) [Example 31, (1-Allyl-5-cyano-8-fluoro-2,3,4,9-tetrahydro-1H-carbazol-1-yl)-acetic acid], 0.37 µM.

With `C=CCC1(C(=O)O)CCc2c1[nH]c1c(Cl)ccc(Cl)c21` (stereo not shown) [Example 1, 3-Allyl-5,8-dichloro-1,2,3,4-tetrahydro-cyclopenta[b]indole-3-carboxylic acid], the half-maximal inhibitory concentration (IC50) was determined as 1.2 µM. As for `CCCCC1(C(=O)O)CCc2c1[nH]c1c(C)cc(F)c(C#N)c21` (stereo not shown) [Example 17, 3-Butyl-8-cyano-7-fluoro-5-methyl-1,2,3,4-tetrahydro-cyclopenta[b]indole-3-carboxylic acid], the figure is 1.5 µM; as for `CCCC1(C(=O)O)CCCc2c1[nH]c1c(F)ccc(C#N)c21` (stereo not shown) [Example 25, 5-Cyano-8-fluoro-1-propyl-2,3,4,9-tetrahydro-1H-carbazole-1-carboxylic acid], 10 µM; as for `CCCC1(CC(=O)O)CCCc2c1[nH]c1c(F)ccc(C#N)c21` (stereo not shown) [Example 32, (5-Cyano-8-fluoro-1-propyl-2,3,4,9-tetrahydro-1H-carbazol-1-yl)-acetic acid], 2 µM. As for `CCCC1(C(=O)O)CCc2c1[nH]c1c(C)cc(F)c(Br)c21` (stereo not shown) [Example 13, 8-Bromo-7-fluoro-5-methyl-3-propyl-1,2,3,4-tetrahydro-cyclopenta[b]indole-3-carboxylic acid], the figure is 2 µM.

In the case of `CCCC1(CC(=O)O)CCCc2c1[nH]c1c(C(N)=O)ccc(C#N)c21` (stereo not shown) [Example 33, (8-Carbamoyl-5-cyano-1-propyl-2,3,4,9-tetrahydro-1H-carbazol-1-yl)-acetic acid], the 50% inhibitory concentration (IC50) was determined as 5.9 µM. For `CCCC1(CC(=O)O)CCCc2c1[nH]c1cc(F)cc(F)c21` (stereo not shown) [Example 30, (5,7-Difluoro-1-propyl-2,3,4,9-tetrahydro-1H-carbazol-1-yl)-acetic acid], the IC50 came out at 30.7 µM. As for `CCCC1(C(=O)O)CCc2c1[nH]c1c(F)ccc(C#N)c21` (stereo not shown) [Example 21, 8-Cyano-5-fluoro-3-propyl-1,2,3,4-tetrahydro-cyclopenta[b]indole-3-carboxylic acid], the figure is 8.1 µM; as for `C=CCC1(C(=O)O)CCc2c1[nH]c1c(C)ccc(C#N)c21` (stereo not shown) [Example 18, 3-Allyl-8-cyano-5-methyl-1,2,3,4-tetrahydro-cyclopenta[b]indole-3-carboxylic acid], 11 µM. The result for `CCCC1(C(=O)O)CCCc2c1[nH]c1c(Cl)ccc(Cl)c21` (stereo not shown) [Example 24, 5,8-Dichloro-1-propyl-2,3,4,9-tetrahydro-1H-carbazole-1-carboxylic acid] reads 3.2 µM; that for `CCCC1(C(=O)O)CCc2c1[nH]c1c(C)ccc(C#N)c21` (stereo not shown) [Example 20, 8-Cyano-5-methyl-3-propyl-1,2,3,4-tetrahydro-cyclopenta[b]indole-3-carboxylic acid], 4.7 µM.

For the compound `CCCC1(C(=O)O)CCc2c1[nH]c1c(C)cc(F)c(C#N)c21` (stereo not shown) [Example 22, 8-Cyano-7-fluoro-5-methyl-3-propyl-1,2,3,4-tetrahydro-cyclopenta[b]indole-3-carboxylic acid], the IC50 came to 1.8 µM. Take `CCCCC1(C(=O)O)CCc2c1[nH]c1c(C)ccc(C#N)c21` (stereo not shown) [Example 15, 3-Butyl-8-cyano-5-methyl-1,2,3,4-tetrahydro-cyclopenta[b]indole-3-carboxylic acid]: the IC50 is 4.6 µM. Turning to `CCCCC1(C(=O)O)CCc2c1[nH]c1c(F)ccc(C#N)c21` (stereo not shown) [Example 16, 3-Butyl-8-cyano-5-fluoro-1,2,3,4-tetrahydro-cyclopenta[b]indole-3-carboxylic acid], the IC50 was 5.4 µM. The result for `CCCCC1(C(=O)O)CCc2c1[nH]c1c(C)cc(F)cc21` (stereo not shown) [Example 7, 3-Butyl-7-fluoro-5-methyl-1,2,3,4-tetrahydro-cyclopenta[b]indole-3-carboxylic acid] reads 9.1 µM; that for `C=CCC1(C(=O)O)CCc2c1[nH]c1c(F)ccc(Br)c21` (stereo not shown) [Example 9, 3-Allyl-8-bromo-5-fluoro-1,2,3,4-tetrahydro-cyclopenta[b]indole-3-carboxylic acid], 6.4 µM; that for `C=CCC1(C(=O)O)CCc2c1[nH]c1c(C)cc(F)c(Br)c21` (stereo not shown) [Example 10, 3-Allyl-8-bromo-7-fluoro-5-methyl-1,2,3,4-tetrahydro-cyclopenta[b]indole-3-carboxylic acid], 3.2 µM. As for `CCC1(C(=O)O)CCCc2c1[nH]c1c(Cl)ccc(Cl)c21` (stereo not shown) [Example 23, 5,8-Dichloro-1-ethyl-2,3,4,9-tetrahydro-1H-carbazole-1-carboxylic acid], the figure is 9.7 µM.

As for `C=CCC1(C(=O)O)CCc2c1[nH]c1c(C)cc(F)c(C#N)c21` (stereo not shown) [Example 19, 3-Allyl-8-cyano-7-fluoro-5-methyl-1,2,3,4-tetrahydro-cyclopenta[b]indole-3-carboxylic acid], the IC50 turned out to be 6.3 µM. As for `C=CCC1(C(=O)O)CCc2c1[nH]c1c(C)ccc(Br)c21` (stereo not shown) [Example 8, 3-Allyl-8-bromo-5-methyl-1,2,3,4-tetrahydro-cyclopenta[b]indole-3-carboxylic acid], the figure is 5.7 µM. As for `CCCC1(CC(=O)O)CCCc2c1[nH]c1cccc(C#N)c21` (stereo not shown) [Example 36, (5-Cyano-1-propyl-2,3,4,9-tetrahydro-1H-carbazol-1-yl)-acetic acid], the figure is 9.5 µM.

With `C=CCC1(C(=O)O)CCc2c1[nH]c1c(F)ccc(C#N)c21` (stereo not shown) [Example 14, 3-Allyl-8-cyano-5-fluoro-1,2,3,4-tetrahydro-cyclopenta[b]indole-3-carboxylic acid], the IC50 worked out at 14.5 µM. As for `CCCCC1(C(=O)O)CCc2c1[nH]c1c(F)ccc(Br)c21` (stereo not shown) [Example 5, 8-Bromo-3-butyl-5-fluoro-1,2,3,4-tetrahydro-cyclopenta[b]indole-3-carboxylic acid], the figure is 5.8 µM. `CCCC1(C(=O)O)CCc2c1[nH]c1c(C)ccc(Br)c21` (stereo not shown) [Example 11, 8-Bromo-5-methyl-3-propyl-1,2,3,4-tetrahydro-cyclopenta[b]indole-3-carboxylic acid]: the IC50 was found to be 1.9 µM.

As to `CCCC1(CC(=O)O)CCCc2c1[nH]c1c(C#N)ccc(C#N)c21` (stereo not shown) [Example 35, (5,8-Dicyano-1-propyl-2,3,4,9-tetrahydro-1H-carbazol-1-yl)-acetic acid], the IC50 amounted to 3.4 µM. The result for `N#Cc1ccc(F)c2[nH]c3c(c12)CCCC3(CC1CCC1)C(=O)O` (stereo not shown) [Example 26, 5-Cyano-1-cyclobutylmethyl-8-fluoro-2,3,4,9-tetrahydro-1H-carbazole-1-carboxylic acid] reads 16 µM.
